Laboratory results taken from patent US8669360B2, “Methods of converting amorphous drug substance into crystalline form” (Boston Scientific Scimed, Inc., priority 2011, dated 2014).

Columns and labels:
[1] = Approximate solubility of amorphous everolimus in solvents; type: physicochemical; conditions: room temperature
Procedure: Approximate solubilities of amorphous everolimus were determined by adding the drug gradually with stirring at room temperature to a fixed volume of the solvent until solid remained visible.

[2] = Comparative aqueous solubility of amorphous and crystalline everolimus (FIG. 3); type: physicochemical; conditions: aqueous solubility at body temperature (37° C.)
Excerpt: FIG. 3 is a graph showing the relative water solubilities of the amorphous and crystalline forms of everolimus.

## CO[C@H]1C[C@@H]2CC[C@@H](C)[C@@](O)(O2)C(=O)C(=O)N2CCCC[C@H]2C(=O)O[C@H]([C@H](C)C[C@@H]2CC[C@@H](OCCO)[C@H](OC)C2)CC(=O)[C@H](C)/C=C(\C)[C@@H](O)[C@@H](OC)C(=O)[C@H](C)C[C@H](C)/C=C/C=C/C=C/1C [Amorphous Everolimus, 40-O-(2-Hydroxyethyl)rapamycin]
[1]; solvent ACN/water 3:2 v/v
  Amorphous Everolimus Solubilities: ~52 mg/mL
[1]; solvent ACN
  Amorphous Everolimus Solubilities: ~100 mg/mL
[1]; solvent Acetone
  Amorphous Everolimus Solubilities: ~100 mg/mL
[1]; solvent DCM
  Amorphous Everolimus Solubilities: ~46 mg/mL
[1]; solvent DMF/DCM w/w
  Amorphous Everolimus Solubilities: ~142 mg/mL
[1]; solvent DMF/EtOAc w/w
  Amorphous Everolimus Solubilities: ~119 mg/mL
[1]; solvent DMF/THF w/w
  Amorphous Everolimus Solubilities: ~112 mg/mL
[1]; solvent DMF
  Amorphous Everolimus Solubilities: ~49 mg/mL
[1]; solvent EtOH
  Amorphous Everolimus Solubilities: ~100 mg/mL
[1]; solvent IPA
  Amorphous Everolimus Solubilities: ~15 mg/mL
[1]; solvent MEK
  Amorphous Everolimus Solubilities: ~70 mg/mL
[1]; solvent MTBE
  Amorphous Everolimus Solubilities: ~62 mg/mL
[1]; solvent THF
  Amorphous Everolimus Solubilities: ~67 mg/mL
[1]; solvent ethyl acetate
  Amorphous Everolimus Solubilities: ~100 mg/mL
[1]; solvent m-xylene
  Amorphous Everolimus Solubilities: ~76 mg/mL
[1]; solvent n-heptane
  Amorphous Everolimus Solubilities: ~0.5 mg/mL
[1]; solvent p-dioxane
  Amorphous Everolimus Solubilities: ~58 mg/mL
[1]; solvent water
  Amorphous Everolimus Solubilities: ~0.1 mg/mL

## CO[C@H]1C[C@@H]2CC[C@@H](C)[C@@](O)(O2)C(=O)C(=O)N2CCCC[C@H]2C(=O)O[C@H]([C@H](C)C[C@@H]2CC[C@@H](OCCO)[C@H](OC)C2)CC(=O)[C@H](C)/C=C(\C)[C@@H](O)[C@@H](OC)C(=O)[C@H](C)C[C@H](C)/C=C/C=C/C=C/1C [crystalline everolimus, 40-O-(2-Hydroxyethyl)rapamycin]
[2]
  Solubility of crystalline everolimus, times lower than that of amorphous everolimus: about 25 times
